Key:
[1] = Stability of the compound at room temperature; assay type: physicochemical
Solubility in solvents = assay type: physicochemical
anaesthetized rat = test: Influence on circulatory system (heart rate, blood pressure, max dP/dt, min dP/dt) in anaesthetized rat, continuous intravenous administration; assay type: in vivo; settings: hydrochloride salt, i.v. continuous 0.1 mg/kg/minute for 20 minutes, difference vs 0 minute value; for change in the heart rate: FIG. 1; for change in blood pressure: FIG. 2; for change in left ventricular contraction function (max dP/dt): FIG. 3; for change in left ventricular relaxation function (min dP/dt): FIG. 4
Method: Measurement of heart rate, blood pressure, left ventricular contraction function (max dP/dt), and left ventricular relaxation function (min dP/dt)
Test method: In the present test, by using an anaesthetized rat, the influence of the hydrochloride salt of the first optical isomer component (A) and the second optical isomer component (B), each administered intravenously and continuously, on a circulatory system was determined. The test was performed with n=5 for each group. Each of the first component (A) or the second component (B) was continuously administered for 20 minutes at 0.1 mg/kg/minute, and then the measurement of heart rate, blood pressure, max dP/dt, and min dP/dt was performed. Each parameter was measured at 0 minute, 1 minute, 5 minutes, 10 minutes, 15 minutes, 20 minutes, 25 minutes, 30 minutes, 35 minutes, and 40 minutes after the administration, and the result was expressed in terms of a difference compared to the 0 minute value (previous value (i.e., control value)). The measurement value was expressed in terms of mean value±SD.
For the data of FIG. 1 to FIG. 4, determination of a significant difference was carried out by using t test.

anaesthetized beagle dog [2] = test: Influence on atrial effective refractory period in anaesthetized beagle dog; assay type: in vivo; settings: FIG. 5; for atrial effective refractory period (% change rate vs control value 100%): hydrochloride salt, i.v. 10 minutes at 0.1 mg/kg/minute then 20 minutes at 0.05 mg/kg/minute, pacing interval 250 msec
Method: Influence on Atrial Effective Refractory Period
Test method: In the present test, by using an anaesthetized beagle dog, the influence of hydrochloride salt of the first optical isomer component (A) and the second optical isomer component (B), each administered intravenously and continuously, on atrial effective refractory period was determined. The test was performed with n=5 for each group. The test compound was continuously administered for 10 minutes at 0.1 mg/kg/minute and then for 20 minutes at 0.05 mg/kg/minute. Measurement of atrial effective refractory period till 270 minutes after the termination of the administration was carried out. The pacing interval was 250 msec. The measurement value was expressed in terms of mean value±SD.
Test results: The test results are expressed in terms of % change rate when the previous value (i.e., control value) of atrial effective refractory period is set at 100%.
For the data of FIG. 5, determination of a significant difference was carried out by using t test.

anaesthetized beagle dog [3] = test: Influence on ventricular effective refractory period in anaesthetized beagle dog; assay type: in vivo; settings: for ventricular effective refractory period (% change rate vs control value 100%): anaesthetized beagle dog, i.v. rapid 5 minutes at 1 mg/kg/minute, measured immediately after administration, pacing interval 250 msec, FIG. 6; for extension of ventricular effective refractory period: beagle dog
Method: Influence on Ventricular Effective Refractory Period Test method: In the present test, by using an anaesthetized beagle dog, the influence of the first optical isomer component (A) and the second optical isomer component (B), each administered intravenously and rapidly, on ventricular effective refractory period was determined. The test was performed with n=5 for each group. The test compound was rapidly administered for 5 minutes at 1 mg/kg/minute. Measurement of ventricular effective refractory period was carried out immediately after the termination of the administration. The pacing interval was 250 msec. The measurement value was expressed in terms of mean value±SD. Test results: The test results are expressed in terms of % change rate when the previous value (i.e., control value) of ventricular effective refractory period is set at 100%.

SMILES	stability to oxygen, humidity, acid, and alkali [1]	solubility in ethanol and dimethyl sulfoxide (DMSO) (Solubility in solvents; free form, amorphous solid)	skin irritating property (Skin irritating property)	change in the heart rate (anaesthetized rat)	change in blood pressure (anaesthetized rat)	change in left ventricular contraction function (max dP/dt) (anaesthetized rat)	change in left ventricular relaxation function (min dP/dt) (anaesthetized rat)	atrial effective refractory period (% change rate vs control value 100%) (anaesthetized beagle dog [2])	atrial effective refractory period extension compared with the other enantiomer (anaesthetized beagle dog [2]; same regimen)	ventricular effective refractory period (% change rate vs control value 100%) (anaesthetized beagle dog [3]; 1 mg/kg)	extension of ventricular effective refractory period (anaesthetized beagle dog [3]; amount of up to 8 mg/Kg)	extension of ventricular effective refractory period (anaesthetized beagle dog [3]; 1 mg/kg, dose dependent)	solubility in water, ethanol, and dimethyl sulfoxide (Solubility in solvents; oxalate, crystal)
COc1ccc2c(c1)CN(C(=O)CCN1CCC(Cc3ccccc3)CC1)CC[S+]2[O-] (racemic) [[Ia], 4-[3-(4-benzylpiperidin-1-yl)propionyl]-7-methoxy-2,3,4,5-tetrahydro-1,4-benzothiazepine-1-oxide]	stable	easily dissolved	has a skin irritating property	–	–	–	–	–	–	–	–	–	–
COc1ccc2c(c1)CN(C(=O)CCN1CCC(Cc3ccccc3)CC1)CC[S+]2[O-] (single isomer, unassigned) [first optical isomer component (A), 4-[3-(4-benzylpiperidin-1-yl)propionyl]-7-methoxy-2,3,4,5-tetrahydro-1,4-benzothiazepine-1-oxide]	–	–	–	mildly increased	mildly increased	enhanced	enhanced	extended	longer extension	not extended	does not show any extension	–	–
COc1ccc2c(c1)CN(C(=O)CCN1CCC(Cc3ccccc3)CC1)CC[S+]2[O-] (single isomer, unassigned) [second optical isomer component (B), 4-[3-(4-benzylpiperidin-1-yl)propionyl]-7-methoxy-2,3,4,5-tetrahydro-1,4-benzothiazepine-1-oxide]	–	–	–	decreased	decreased	reduced	reduced	extended	–	significantly extended	–	can extend ventricular effective refractory period	–
COc1ccc2c(c1)CN(C(=O)CCN1CCC(Cc3ccccc3)CC1)CC[S+]2[O-] (stereo not shown) [oxalate of the compound [Ia], 4-[3-(4-benzylpiperidin-1-yl)propionyl]-7-methoxy-2,3,4,5-tetrahydro-1,4-benzothiazepine-1-oxide]	–	–	–	–	–	–	–	–	–	–	–	–	soluble

From patent US10071996B2, “Optical isomer of 1,4-benzothiazepine-1-oxide derivative, and pharmaceutical composition prepared using same” (AETAS PHARMA CO., LTD., priority 2014, dated 2018)
